Tests used:
rats = assay: Test for antiarthritic activity in rats (adjuvant); assay type: in vivo; details: Rattus norvegicus, daily oral route from day 15, read on day 25
Experimental: V: Test for Antiarthritic Activity in Rats
The test for antiarthritic activity is carried out as described in the publication of Anderson et al., J. Clin. Invest. 97, 11, 2672-2679, (1996). The respective part of the description is hereby incorporated by reference and forms part of the present disclosure.
On day 0 of the experiment, the volumes of the contralateral paws to those injected, i.e. left hind paws, are measured by means of a pletismometer, the readings of which are expressed in ml.
Next, each rat is injected the adjuvant, consisting of 1 mg of Mycobacterium butyricum suspended in 0.1 ml of mineral oil, via subplantar route in the right hind paw.
Approximately every day, and for 15 days after the injection of adjuvant, the volumes of non-injected hind paws (contralateral) are measured again. […]
On day 15 of the experiment, daily administration of the compounds to be tested via oral route is started, and on each day, the volumes of non-injected hind paws is recorded.
On Day 25 of the experiment, the body weights and non-injected hind paws (contralateral) volumes are measured for the last time, and these values were used to determine the activities.

Cox-1 = biological target: T1, Cox-1 (Homo sapiens, UniProt P23219); assay: Cox-1 activity in human whole blood (TXB2); assay type: cell-based; details: read-out: hWB inhibition COX-1 IC50
T1 construct: from tissue; host or cells: fresh human whole blood
T1 sequence (P23219 24-599): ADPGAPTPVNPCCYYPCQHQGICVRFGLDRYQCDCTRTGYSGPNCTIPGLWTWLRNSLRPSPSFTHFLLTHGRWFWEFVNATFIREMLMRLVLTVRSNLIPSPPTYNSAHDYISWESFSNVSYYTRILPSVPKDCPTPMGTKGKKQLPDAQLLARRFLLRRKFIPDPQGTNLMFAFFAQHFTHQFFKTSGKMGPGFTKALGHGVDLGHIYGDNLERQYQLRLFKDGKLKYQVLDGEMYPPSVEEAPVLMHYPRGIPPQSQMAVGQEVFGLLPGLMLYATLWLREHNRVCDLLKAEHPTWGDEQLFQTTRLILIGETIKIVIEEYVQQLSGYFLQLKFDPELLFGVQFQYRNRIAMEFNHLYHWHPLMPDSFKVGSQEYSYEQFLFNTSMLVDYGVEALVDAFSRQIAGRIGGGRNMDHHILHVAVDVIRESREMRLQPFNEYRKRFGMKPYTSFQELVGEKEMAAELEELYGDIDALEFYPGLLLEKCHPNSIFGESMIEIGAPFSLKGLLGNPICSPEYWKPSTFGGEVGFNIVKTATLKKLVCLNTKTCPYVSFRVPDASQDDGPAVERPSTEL
Experimental: (§1) II. Determination of Cox-1- and Cox-2-Activity in Human Whole Blood
(§2) The Cox-1- and Cox-2-activity in human whole blood is determined according to a modification of the method described in the publication of C. Brideau et al., “A human whole blood assay for clinical evaluation of biochemical efficacy of cyclooxygenase inhibitors”, Inflamm Res 1996; 45: 68-74. The respective part of the description is hereby incorporated by reference and forms part of the present disclosure.
For Cox-1 activity determination, fresh human blood is distributed in a volume of 0.5 ml to silicone Eppendorf tubes, into which 2 μl of the compound to be tested or dimethylsulfoxide (DMSO) at a final concentration of 0.4% (volume/volume). The tubes are inverted for homogenization and incubated for 1 hour at 37° C. under slight stirring. Afterwards they are centrifuged for 15 min at 10500 g and 100 μl of serum is collected. Proteins are precipitated by the addition of 400 μl of methanol to each tube, tubes were centrifuged for 10 minutes at 5000 g and 300 μl of supernatant is aspirated and then dried under nitrogen atmosphere.
Tromboxane B2 (TXB2) concentration is quantified using an assay kit (Caymann Chemical, Ann Arbor, Mich., U.S.A., Catalogue number 519031) after reconstitution into 300 μl assay buffer supplied in the assay kit.

Cox-2 enzyme = biological target: T2, Cox-2 enzyme (Ovis aries, UniProt P79208); assay: Cox-1/Cox-2 enzyme assay (Cox-2); assay type: biochemical; details: for IC50: enzyme assay
T2 construct: purchased Cayman Chemical 60120
T2 sequence (P79208 17-603): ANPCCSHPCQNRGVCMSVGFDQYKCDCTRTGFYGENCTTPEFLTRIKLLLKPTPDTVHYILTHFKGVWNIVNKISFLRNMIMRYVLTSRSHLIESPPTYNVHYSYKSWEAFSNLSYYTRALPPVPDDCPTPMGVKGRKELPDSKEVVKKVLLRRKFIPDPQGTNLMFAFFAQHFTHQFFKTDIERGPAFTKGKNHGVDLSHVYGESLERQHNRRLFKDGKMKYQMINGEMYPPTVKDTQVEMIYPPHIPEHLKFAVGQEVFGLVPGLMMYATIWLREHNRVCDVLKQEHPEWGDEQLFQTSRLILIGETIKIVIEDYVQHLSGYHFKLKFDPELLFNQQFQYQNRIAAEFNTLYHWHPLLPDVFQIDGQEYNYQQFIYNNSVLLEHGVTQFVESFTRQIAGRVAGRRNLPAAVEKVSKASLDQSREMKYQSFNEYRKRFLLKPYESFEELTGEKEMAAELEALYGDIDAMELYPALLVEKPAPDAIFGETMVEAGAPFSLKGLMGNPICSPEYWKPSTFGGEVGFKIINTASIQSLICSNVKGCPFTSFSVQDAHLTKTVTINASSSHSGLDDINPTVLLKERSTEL
Experimental: (§3) I. Cox-1/Cox-2 Enzyme Assay:
(§4) The Cox-1/Cox-2 enzyme assay for the inventive azetidine compounds is carried out according to the following description:
(§5) Immediately after the addition of the substrate, the slope corresponding to the optical density increase at 480 nm is recorded for 1 minute. The reaction is monitored with a Hewlett-Packard 8452A spectrophotometer.

Cox-1 enzyme = biological target: T3, Cox-1 enzyme (Ovis aries, UniProt P05979); assay: Cox-1/Cox-2 enzyme assay (Cox-1); assay type: biochemical; details: for IC50: enzyme assay; for inhibition at 50 µM: read-out: % inhibition 5 × 10^−5 M COX-1
T3 construct: purchased Cayman Chemical 60100
T3 sequence (P05979 25-600): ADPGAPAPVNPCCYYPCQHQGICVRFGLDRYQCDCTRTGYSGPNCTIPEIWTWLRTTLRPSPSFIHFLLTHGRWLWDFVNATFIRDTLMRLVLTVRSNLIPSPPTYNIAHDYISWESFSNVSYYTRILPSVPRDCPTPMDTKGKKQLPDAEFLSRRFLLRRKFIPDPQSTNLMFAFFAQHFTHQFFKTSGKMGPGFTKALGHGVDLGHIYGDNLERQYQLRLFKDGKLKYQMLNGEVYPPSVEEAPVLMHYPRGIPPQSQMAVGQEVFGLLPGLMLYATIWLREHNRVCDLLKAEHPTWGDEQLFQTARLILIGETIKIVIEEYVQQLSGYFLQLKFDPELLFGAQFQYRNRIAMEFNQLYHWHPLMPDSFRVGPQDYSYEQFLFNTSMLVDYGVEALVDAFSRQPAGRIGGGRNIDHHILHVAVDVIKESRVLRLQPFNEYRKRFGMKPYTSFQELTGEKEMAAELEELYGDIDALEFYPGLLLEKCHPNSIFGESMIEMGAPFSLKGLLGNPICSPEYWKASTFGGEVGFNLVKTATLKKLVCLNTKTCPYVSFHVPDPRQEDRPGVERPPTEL
Experimental: as §3, §4, §5

Cox-2 = biological target: T4, Cox-2 (Homo sapiens, UniProt P35354); assay: Cox-2 activity in human whole blood (LPS, PGE2); assay type: cell-based; details: read-out: hWB inhibition COX-2 IC50
T4 construct: 0.5 ml of fresh human blood; from tissue; host or cells: fresh human whole blood stimulated with E. coli 0111:B4 LPS
T4 sequence (P35354 18-604): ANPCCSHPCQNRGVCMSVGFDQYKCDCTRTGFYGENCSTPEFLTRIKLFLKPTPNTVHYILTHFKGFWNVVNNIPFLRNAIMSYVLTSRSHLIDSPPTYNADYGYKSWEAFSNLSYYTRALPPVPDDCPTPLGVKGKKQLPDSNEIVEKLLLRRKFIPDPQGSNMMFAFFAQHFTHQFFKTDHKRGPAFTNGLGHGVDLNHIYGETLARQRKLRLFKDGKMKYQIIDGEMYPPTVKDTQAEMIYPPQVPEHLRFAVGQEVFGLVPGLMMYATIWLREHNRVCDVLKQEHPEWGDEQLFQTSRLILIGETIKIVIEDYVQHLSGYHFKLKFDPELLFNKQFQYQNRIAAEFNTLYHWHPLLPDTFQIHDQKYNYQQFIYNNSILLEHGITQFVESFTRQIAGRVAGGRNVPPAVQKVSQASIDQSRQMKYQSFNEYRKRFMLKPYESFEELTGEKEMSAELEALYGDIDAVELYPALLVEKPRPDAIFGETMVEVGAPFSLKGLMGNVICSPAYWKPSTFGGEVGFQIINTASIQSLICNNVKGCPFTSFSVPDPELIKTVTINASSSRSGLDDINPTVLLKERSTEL
Experimental: as §1, §2
For Cox-2 activity determination, tubes are prepared with 2 μl of the compound to be tested or DMSO, 12 μg/ml of aspirine, 9 μl of 1% (weight/volume) sodium heparine and 0.5 ml of fresh human blood. Samples are pre-incubated at 37° C. during 15 minutes and E. coli 0111:B4 LPS (from Sigma Chemical, St. Louis, Mo. U.S.A., catalogue number L-3012) are added for incubation during 24 h at 37° C. The samples are centrifuged for 100 μl of plasma collection. 400 μl of Ethyl acetate and 1% (volume/volume) methanol are added to each sample and the tubes are stirred and centrifuged for 10 minutes at 5000 g at 4° C. 300μl of supernatant are aspirated and evaporated under nitrogen atmosphere. Prostaglandin E2 concentration is quantified using an assay kit from Cayman Chemical, Ann-Arbor, Mich., U.S.A. (Catalogue number: 514010 ) after reconstitution into 300 μl assay buffer supplied in the assay kit.

| Structure (SMILES) | ED50 (rats) [mg/kg] | IC50 (Cox-1) [nM] | IC50 (Cox-2 enzyme) [nM] | IC50 (Cox-1 enzyme) [µM] | IC50 (Cox-2) [nM] | melting point [°C] | inhibition at 50 µM (Cox-1 enzyme) [%] | inhibition at 50 µM (Cox-2 enzyme; read-out: % inhibition 5 × 10^−5 M COX-2) [%] |
| --- | --- | --- | --- | --- | --- | --- | --- | --- |
| CC(C)(C)c1cc(C(=O)N2CC(O)C2)cc(C(C)(C)C)c1O [Example 1, (3,5-di-tert-butyl-4-hydroxy-phenyl)-(3-hydroxy-azetidin-1-yl)-methanone] | 0.5 | 100 | 1510 | 37.7 | 200 | 185 to 189 | – | – |
| CC1(O)CN(C(=O)c2cc(C(C)(C)C)c(O)c(C(C)(C)C)c2)C1 [Example 3, (3,5-di-tert-butyl-4-hydroxy-phenyl)-(3-hydroxy-3-methyl-azetidin-1-yl)-methanone] | 0.34 | 100 | 3510 | 349 | 100 | 148 to 153 | – | – |
| CC(C)(C)c1cc(C(=O)N2CC(Br)C2)cc(C(C)(C)C)c1O [Example 7, (3-Bromo-azetidin-1-yl)-(3,5-di-tert-butyl-4-hydroxy-phenyl)-methanone] | – | – | 200 | – | – | 160 to 163 | 35 | – |
| CC(C)(C)c1cc(CC(=O)N2CC(O)C2)cc(C(C)(C)C)c1O [Example 18, 2-(3,5-di-tert-butyl-4-hydroxy-phenyl)-1-(3-hydroxy-azetidin-1-yl)-ethanone] | – | – | – | – | – | 154 to 156 | 4 | 1 |
